Experiment [1] concerns the target T1, AChE from Electrophorus electricus (electric eel) (Electrophorus electricus, UniProt O42275).
T1 construct: purchased Sigma Aldrich C3389
As to the kind of experiment: biochemical. Particulars: for IC50: AChI substrate, DTNB, 412 nm, Tris/HCl pH 8.0; for Ki: read-out: K i (nM) AChE. How it is done:
Both […] (AChI) and butyrylcholine iodide (BChI) were used as substrates for the enzymatic hydrolysis reactions, with 5,5′‐dithiobis(2‐nitrobenzoic acid) (DTNB) serving as a common reagent for detecting the activities of AChE and BChE. The assay was conducted: 1 mL of 1.0 M Tris/HCl buffer (pH 8.0) was mixed with 10 μL of the sample solution in deionized water. To this mixture, 50 μL of AChE or BChE enzyme solution was added, and the reaction was incubated at room temperature for 10 min. After incubation, 50 μL of DTNB (0.5 mM) was introduced, followed by the addition of 50 μL of either AChI or BChI (10 mM), initiating the enzymatic reaction. […] This color change is due to the reaction of DTNB with thiocholine released during the hydrolysis of AChI or BChI. For every inhibitor that was utilized, IC50 and K i values were determined. In this study, C7512‐ BChE from equine serum and C3389‐ AChE from Electrophorus electricus (electric eel) were purchased from Sigma Aldrich.

Experiment [2] deals with T2, hMAO‐B (Homo sapiens, UniProt P27338).
T2 construct: purchased Sigma Aldrich M7441
T2 sequence (P27338 1-520): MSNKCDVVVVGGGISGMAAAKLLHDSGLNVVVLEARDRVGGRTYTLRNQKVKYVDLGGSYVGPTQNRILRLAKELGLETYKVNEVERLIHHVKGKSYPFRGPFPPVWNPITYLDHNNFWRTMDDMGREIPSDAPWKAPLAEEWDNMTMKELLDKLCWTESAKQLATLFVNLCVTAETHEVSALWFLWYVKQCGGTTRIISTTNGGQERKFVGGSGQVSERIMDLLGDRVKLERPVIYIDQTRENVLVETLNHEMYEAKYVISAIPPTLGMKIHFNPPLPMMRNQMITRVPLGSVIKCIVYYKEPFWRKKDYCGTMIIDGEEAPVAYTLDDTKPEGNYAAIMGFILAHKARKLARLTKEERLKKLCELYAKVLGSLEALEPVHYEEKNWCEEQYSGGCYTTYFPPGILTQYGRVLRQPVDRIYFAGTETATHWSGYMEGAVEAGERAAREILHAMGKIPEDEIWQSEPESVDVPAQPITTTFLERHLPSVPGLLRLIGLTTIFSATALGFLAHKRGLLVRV
Briefly: In vitro fluorometric MAO-B inhibition assay (tyramine substrate, horseradish peroxidase coupling). The format is biochemical. Here is the method:
(§1) The in vitro fluorometric technique was used to assess each newly generated substance's inhibitory activity against hMAO‐A and hMAO‐B. In a horseradish peroxidase coupling reaction, the oxired reagent (10‐acetyl‐3,7‐dihydroxyphenoxazine) detects H2O2, a result of the oxidative deamination of tyramine, which is utilized as an MAO substrate. The test was carried out in two steps. First, each compound's concentrations of 10^–3 and 10^–4 M were investigated. […] These parameters of this study were made as in previous studies. We purchased these two enzymes from Sigma Aldrich (M7316‐Monoamine Oxidase A human and M7441‐ […]).

Experiment [3] concerns the target T3, hMAO‐A (Homo sapiens, UniProt P21397).
T3 construct: purchased Sigma Aldrich M7316
T3 sequence (P21397 1-527): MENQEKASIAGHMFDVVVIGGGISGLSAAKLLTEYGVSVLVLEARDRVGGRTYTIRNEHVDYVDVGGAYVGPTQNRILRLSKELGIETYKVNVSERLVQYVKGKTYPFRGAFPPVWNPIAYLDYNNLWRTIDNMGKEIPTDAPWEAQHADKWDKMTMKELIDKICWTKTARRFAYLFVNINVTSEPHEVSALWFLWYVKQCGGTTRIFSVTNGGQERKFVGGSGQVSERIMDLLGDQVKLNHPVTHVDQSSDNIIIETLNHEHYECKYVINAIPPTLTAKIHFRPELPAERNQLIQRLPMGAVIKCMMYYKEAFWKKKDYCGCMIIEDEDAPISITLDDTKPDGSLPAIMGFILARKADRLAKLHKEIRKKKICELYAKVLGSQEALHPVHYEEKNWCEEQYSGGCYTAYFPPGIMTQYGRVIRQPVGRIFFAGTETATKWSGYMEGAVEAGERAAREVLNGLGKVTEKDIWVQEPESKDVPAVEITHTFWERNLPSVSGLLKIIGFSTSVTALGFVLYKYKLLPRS
As to the kind of experiment: In vitro fluorometric MAO-A inhibition assay (tyramine substrate, horseradish peroxidase coupling). The experiment is classed as biochemical. How it is done:
as §1

Experiment [4] addresses T4, BChE from equine serum (Equus caballus, UniProt P81908).
T4 construct: C7512‐ BChE from equine serum; purchased Sigma Aldrich C7512; host or cells: equine serum
As to the kind of experiment: biochemical. Particulars: for IC50: BChI substrate, DTNB, 412 nm, Tris/HCl pH 8.0; for Ki: read-out: K i (nM) BChE. How it is done: Both […] (AChI) and butyrylcholine iodide (BChI) were used as substrates for the enzymatic hydrolysis reactions, with 5,5′‐dithiobis(2‐nitrobenzoic acid) (DTNB) serving as a common reagent for detecting the activities of AChE and BChE. The assay was conducted: 1 mL of 1.0 M Tris/HCl buffer (pH 8.0) was mixed with 10 μL of the sample solution in deionized water. To this mixture, 50 μL of AChE or BChE enzyme solution was added, and the reaction was incubated at room temperature for 10 min. After incubation, 50 μL of DTNB (0.5 mM) was introduced, followed by the addition of 50 μL of either AChI or BChI (10 mM), initiating the enzymatic reaction. The hydrolysis of the substrates was monitored spectrophotometrically by measuring the absorbance at 412 nm, corresponding to the formation of the yellow‐colored 5‐thio‐2‐nitrobenzoate anion. This color change is due to the reaction of DTNB with thiocholine released during the hydrolysis of AChI or BChI. For every inhibitor that was utilized, IC50 and K i values were determined. In this study, C7512‐ BChE from equine serum and C3389‐ AChE from Electrophorus electricus (electric eel) were purchased from Sigma Aldrich.

T4 sequence (P81908 whole entry): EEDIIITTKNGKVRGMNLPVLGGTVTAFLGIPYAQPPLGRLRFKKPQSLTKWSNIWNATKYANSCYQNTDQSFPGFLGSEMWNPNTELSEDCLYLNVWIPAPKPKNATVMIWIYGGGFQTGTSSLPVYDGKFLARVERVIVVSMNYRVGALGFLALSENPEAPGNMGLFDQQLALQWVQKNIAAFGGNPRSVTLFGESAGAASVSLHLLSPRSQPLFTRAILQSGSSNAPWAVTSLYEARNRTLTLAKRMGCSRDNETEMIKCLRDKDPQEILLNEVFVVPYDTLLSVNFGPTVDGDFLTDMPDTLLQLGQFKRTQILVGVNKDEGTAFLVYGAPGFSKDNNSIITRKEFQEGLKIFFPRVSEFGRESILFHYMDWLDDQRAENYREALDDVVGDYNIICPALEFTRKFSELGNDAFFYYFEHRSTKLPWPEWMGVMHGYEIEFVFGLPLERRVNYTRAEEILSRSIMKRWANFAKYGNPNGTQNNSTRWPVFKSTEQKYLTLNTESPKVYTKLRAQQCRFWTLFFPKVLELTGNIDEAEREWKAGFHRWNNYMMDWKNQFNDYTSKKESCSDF
T1 sequence (O42275 24-633): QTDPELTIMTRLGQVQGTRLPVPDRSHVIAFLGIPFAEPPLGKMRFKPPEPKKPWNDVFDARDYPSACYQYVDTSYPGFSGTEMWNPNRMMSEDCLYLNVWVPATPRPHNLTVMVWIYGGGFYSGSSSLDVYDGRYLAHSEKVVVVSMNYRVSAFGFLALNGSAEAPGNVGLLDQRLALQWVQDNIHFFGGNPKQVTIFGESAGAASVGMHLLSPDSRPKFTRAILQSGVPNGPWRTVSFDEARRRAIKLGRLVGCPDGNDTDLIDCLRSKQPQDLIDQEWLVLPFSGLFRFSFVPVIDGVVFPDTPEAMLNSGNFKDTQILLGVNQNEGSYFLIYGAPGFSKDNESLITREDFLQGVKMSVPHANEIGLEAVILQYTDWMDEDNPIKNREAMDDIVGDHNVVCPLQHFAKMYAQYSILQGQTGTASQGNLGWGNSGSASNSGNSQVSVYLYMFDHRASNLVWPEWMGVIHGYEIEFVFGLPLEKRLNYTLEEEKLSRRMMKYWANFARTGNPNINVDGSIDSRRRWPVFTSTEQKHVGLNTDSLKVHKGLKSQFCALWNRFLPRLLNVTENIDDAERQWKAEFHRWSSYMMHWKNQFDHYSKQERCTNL

On to `CCN(CC)c1ccc(/C=N/NC(=S)NC)c(OS(=O)(=O)c2ccc3ccccc3c2)c1` [Compound 5m, (E)‐5‐(Diethylamino)‐2‐{[2‐(methylcarbamothioyl)hydrazono]methyl}phenyl naphthalene‐2‐sulfonate], for which the IC50 (commonly the concentration that gives 50% inhibition) is 38.5 ± 3.21 nM in experiment [1], 369 ± 11.2 nM in experiment [2], 132 ± 4.96 nM in experiment [3] and 214 ± 7.13 nM in experiment [4]. For the same compound, the figures for the Ki in experiment [1] and in experiment [4] were 30.2 ± 5.02 nM and 193 ± 11.6 nM, respectively.

`CCN(CC)c1ccc(/C=N/NC(N)=S)c(OS(=O)(=O)c2ccc3ccccc3c2)c1` [Compound 5n, (E)‐2‐[(2‐Carbamothioylhydrazono)methyl]‐5‐(diethylamino)phenyl naphthalene‐2‐sulfonate]: the IC50 in experiment [1] amounted to 47.7 ± 5.67 nM; in experiment [2] it was 396 ± 8.09 nM; in experiment [3] it was 137 ± 6.55 nM; in experiment [4], 308 ± 9.98 nM. Further, the Ki in experiment [1] came to 42.4 ± 4.1 nM; in experiment [4] it was 270 ± 13.5 nM.

As for `CCN(CC)c1ccc(/C=N/NC(=S)Nc2cccc([N+](=O)[O-])c2)c(OS(=O)(=O)c2ccc3ccccc3c2)c1` [Compound 5o, (E)‐5‐(Diethylamino)‐2‐({2‐[(3‐nitrophenyl)carbamothioyl]hydrazono}methyl)phenyl naphthalene‐2‐sulfonate], the IC50 in experiment [1] was determined as 18.9 ± 1.33 nM; in experiment [2], 267 ± 6.35 nM; in experiment [3] it was 123 ± 7.01 nM; in experiment [4], 192 ± 6.36 nM. The Ki in experiment [1] is 14.2 ± 2.32 nM; in experiment [4] it was 160 ± 9.01 nM.

Turning to `CCN(CC)c1ccc(/C=N/NC(=S)NC2CCCCC2)c(OS(=O)(=O)c2ccc3ccccc3c2)c1` [Compound 5p, (E)‐2‐{[2‐(Cyclohexylcarbamothioyl)hydrazono]methyl}‐5‐(diethylamino)phenyl naphthalene‐2‐sulfonate], the IC50 in experiment [1] is 54.5 ± 4.57 nM; in experiment [2], 327 ± 9.13 nM; in experiment [3] it was 145 ± 3.57 nM; in experiment [4], 254 ± 8.08 nM. The values for the Ki in experiment [1] and in experiment [4] were 47.1 ± 6.35 nM and 226 ± 12.6 nM, respectively.

Take `CCN(CC)c1ccc(/C=N/NC(=S)NCc2ccc(Cl)cc2)c(OS(=O)(=O)c2ccc3ccccc3c2)c1` [Compound 5q, (E)‐2‐({2‐[(4‐Chlorobenzyl)carbamothioyl]hydrazono}methyl)‐5‐(diethylamino)phenyl naphthalene‐2‐sulfonate]: the IC50 in experiment [1] is 19.3 ± 1.28 nM; in experiment [2], 308 ± 6.07 nM; in experiment [3], 119 ± 9.24 nM; in experiment [4], 202 ± 14.9 nM. In addition, the figures for the Ki in experiment [1] and in experiment [4] were 17.6 ± 3.34 nM and 183 ± 11.5 nM, respectively.

For `CCN(CC)c1ccc(/C=N/NC(=S)Nc2ccccc2C)c(OS(=O)(=O)c2ccc3ccccc3c2)c1` [Compound 5r, (E)‐5‐(Diethylamino)‐2‐{[2‐(o‐tolylcarbamothioyl)hydrazono]methyl}phenyl naphthalene‐2‐sulfonate], the IC50 was 27.4 ± 2.42 nM in experiment [1], 495 ± 8.36 nM in experiment [2], 143 ± 6.78 nM in experiment [3] and 294 ± 7.14 nM in experiment [4]. The Ki in experiment [1] came out at 21.2 ± 1.05 nM; in experiment [4], 249 ± 15.3 nM.

`CCN(CC)c1ccc(/C=N/NC(=S)NCc2ccccc2)c(OS(=O)(=O)c2ccc3ccccc3c2)c1` [Compound 5s, (E)‐2‐{[2‐(Benzylcarbamothioyl)hydrazono]methyl}‐5‐(diethylamino)phenyl naphthalene‐2‐sulfonate]: the IC50 in experiment [1] turned out to be 71.4 ± 8.92 nM; in experiment [2], 369 ± 12 nM; in experiment [3] it was 131 ± 5.34 nM; in experiment [4] it was 220 ± 8.53 nM. Moreover, the Ki in experiment [1] turned out to be 63.9 ± 7.54 nM; in experiment [4] it was 195 ± 13.5 nM.

With `CCN(CC)c1ccc(/C=N/NC(=S)NCCc2ccccc2)c(OS(=O)(=O)c2ccc3ccccc3c2)c1` [Compound 5t, (E)‐5‐(Diethylamino)‐2‐{[2‐(phenethylcarbamothioyl)hydrazono]methyl}phenyl naphthalene‐2‐sulfonate], the IC50 in experiment [1] is 56.2 ± 4.58 nM; in experiment [2] it was 289 ± 9.11 nM; in experiment [3], 139 ± 6.02 nM; in experiment [4] it was 271 ± 6.9 nM. Further, the figures for the Ki in experiment [1] and in experiment [4] were 48.3 ± 7.32 nM and 227 ± 16.1 nM, respectively.

Regarding `CCN(CC)c1ccc(/C=N/NC(=S)Nc2c(Cl)cccc2Cl)c(OS(=O)(=O)c2ccc3ccccc3c2)c1` [Compound 5u, (E)‐2‐({2‐[(2,6‐Dichlorophenyl)carbamothioyl]hydrazono}methyl)‐5‐(diethylamino)phenyl naphthalene‐2‐sulfonate], the IC50 was 12.9 ± 1.02 nM in experiment [1], 209 ± 5.84 nM in experiment [2], 96.2 ± 5.77 nM in experiment [3] and 148 ± 7.35 nM in experiment [4]. The Ki in experiment [1] was found to be 9.82 ± 1.76 nM; in experiment [4], 112 ± 7.61 nM.

(Values after publication PMC12277872, “Design, Synthesis, In Vitro, and In Silico Studies of 5‐(Diethylamino)‐2‐Formylphenyl Naphthalene‐2‐Sulfonate Based Thiosemicarbazones as Potent Anti‐Alzheimer Agents” (Archiv Der Pharmazie, 2025).)
